6 compounds from patent publication US20090258098A1, “PENETRATING CARRIER, ANTIFUNGAL COMPOSITION USING THE SAME AND METHOD FOR TREATMENT OF DERMATOPHYTE INFECTIONS” (priority 2008, published 2009) can be followed below.

Experiment [1] concerns dermatophytic fungal strains. Description: Disk assay of essential oil components. Format: cell-based. Conditions: disk loaded with 500, 1000, 1500 or 3000 ppm. Here is the method: Various embodiments of the penetrating carrier system of the present invention were tested for their antimicrobial/biostatic potential by a laboratory test method, which provides a qualitative and semi-qualitative procedure for the evaluation of antimicrobial activity by disk assay. All dermatophytic fungal strains (Table 1) were grown on modified Sabouraud agar (pH adjusted to 7). The cultures were grown for one week previous to the experiments at 30° C., while stock culture plates were maintained at 4° C. until needed. […] The sterile disk was then loaded with 500 ppm, 1000 ppm, 1500 ppm or 3000 ppm of the test compound. A control was provided by placing 2 ul of alcohol on plates that were inoculated for this purpose. The plates were incubated for seven (7) days at 30° C. The zone of inhibition was measured around each loaded disk in four directions. The average measurement was then determined and recorded in millimeters as the zone of inhibition.

Another experiment relates to Trichopyton rubrum. The experiment is described as follows: Minimum inhibitory concentration, poison media procedure. Format: cell-based, Trichophyton rubrum. The procedure: (§1) Each individual essential oil component was mixed with molten modified Sabouraud agar in 100 ppm, 500 ppm, or 1000 ppm (v/v). The poison media agar was then poured and allowed to cool for at least 48 hours. Separate cultures of four dermatophytes (i.e.: E. floccosum, M. gypseum, T. mentagrophytes, and T. rubrum) were grown on modified Sabouraud agar for four days until a confluent mat of mycelium developed. The four cultures were then cut into 8 mm plugs and placed upside down with the fungi culture on the surface of the poison media. This procedure was run in triplicate. In addition, several mixtures containing various combinations of the essential oil components were tested using the same procedure. The plates were incubated for one week at 30° C. Plates were then examined for growth. Plates with no visible growth after one week on the poison media were listed as fungistatic
(§2) Plugs showing no growth on the poison media were then transferred to modified SDA, allowed to incubate for an additional week at 30° C., and then reexamined for growth. All components were run in triplicate. Plates with no growth after the additional week were listed as fungicidal.

The subject of a further experiment is Epidermophyton floccosum. The experiment is described as above. Format: cell-based. Here is the method: as §1, §2
The test system of experiment [2] is Trichophyton mentagrophytes. The description is as above. Format: cell-based. The procedure:
as §1, §2

A further experiment relates to Microsporum gypseum. The description is as above. Format: cell-based. The procedure:
as §1, §2

The subject of experiment [3] is four dermatophytes (E. floccosum, M. gypseum, T. mentagrophytes, and T. rubrum). The experiment is described as follows: Poison media procedure. Format: cell-based. Conditions: 100 ppm. The procedure:
as §1, §2

[4] abbreviates: 100 ppm (v/v) in modified Sabouraud agar, one week at 30° C.
The mark [5] stands for this setting: 500 ppm (v/v) in modified Sabouraud agar, one week at 30° C.
[6] abbreviates: 1000 ppm (v/v) in modified Sabouraud agar, one week at 30° C.

As to `O=CC=Cc1ccccc1` [Cinnamaldehyde], the “Rank among essential oil components in the disk assay” value (“Rank among essential oil components” below) in experiment [1] was “most inhibitory”. The “Growth on poison media (fungistatic / fungicidal / growth)” value in the experiment on Trichopyton rubrum (setting [4]) was “[empty]”; with Trichopyton rubrum (setting [5]) it was “fungicidal”; with Trichopyton rubrum (setting [6]) it was “fungicidal”; in the experiment on Epidermophyton floccosum (setting [4]) it was “[empty]”; in the experiment on Epidermophyton floccosum (setting [5]), “fungicidal”; in the experiment with Epidermophyton floccosum (setting [6]), “fungicidal”. Further, the “Growth on poison media (fungistatic / fungicidal / growth)” value in experiment [2] (setting [4]) was “[empty]”; in experiment [2] (setting [5]) it was “[empty]”; in experiment [2] (setting [6]), “fungicidal”; in the experiment on Microsporum gypseum (setting [4]), “[empty]”; in the experiment on Microsporum gypseum (setting [5]) it was “fungicidal”; in the experiment on Microsporum gypseum (setting [6]) it was “fungicidal”.
Turning to `C=CCc1ccc(O)c(OC)c1` [Eugenol], in experiment [1], the “Rank among essential oil components” value is “most inhibitory”. The “Growth on poison media (fungistatic / fungicidal / growth)” value in the experiment with Trichopyton rubrum (setting [4]) is “[empty]”; in the experiment with Trichopyton rubrum (setting [5]), “fungistatic”; in the experiment on Trichopyton rubrum (setting [6]), “fungicidal”; in the experiment with Epidermophyton floccosum (setting [4]), “[empty]”; in the experiment with Epidermophyton floccosum (setting [5]), “fungicidal”; in the experiment on Epidermophyton floccosum (setting [6]), “fungicidal”. For the same compound, the “Growth on poison media (fungistatic / fungicidal / growth)” value in experiment [2] (setting [4]) is “[empty]”; in experiment [2] (setting [5]), “fungistatic”; in experiment [2] (setting [6]) it was “fungistatic”; in the experiment with Microsporum gypseum (setting [4]), “[empty]”; with Microsporum gypseum (setting [5]) it was “fungicidal”; with Microsporum gypseum (setting [6]) it was “fungicidal”.
Take `C=CCc1ccc(OC)c(OC)c1` [Methyl Eugenol]: the “Growth on poison media (fungistatic / fungicidal / growth)” value with Trichopyton rubrum (168 h, 100 ppm) was “[empty]”; with Trichopyton rubrum (168 h, 500 ppm), “fungistatic”; in the experiment with Trichopyton rubrum (168 h, 1000 ppm) it was “fungistatic”; with Epidermophyton floccosum (168 h, 100 ppm), “[empty]”; in the experiment on Epidermophyton floccosum (168 h, 500 ppm) it was “fungistatic”; with Epidermophyton floccosum (168 h, 1000 ppm) it was “fungistatic”. Moreover, the “Growth on poison media (fungistatic / fungicidal / growth)” value in experiment [2] (168 h, 100 ppm) was “[empty]”; in experiment [2] (168 h, 500 ppm) it was “fungistatic”; in experiment [2] (168 h, 1000 ppm) it was “fungistatic”; in the experiment on Microsporum gypseum (168 h, 100 ppm), “[empty]”; in the experiment on Microsporum gypseum (168 h, 500 ppm) it was “fungistatic”; in the experiment on Microsporum gypseum (168 h, 1000 ppm), “fungistatic”.
On to `Cc1ccc(C(C)C)c(O)c1` [Thymol], for which the “Inhibition of growth” value in experiment [3] is “inhibit the growth of several organisms”. Further, in experiment [1], the “Rank among essential oil components” value is given as “most inhibitory”. For the same compound, the “Growth on poison media (fungistatic / fungicidal / growth)” value with Trichopyton rubrum (setting [4]) is “fungicidal”; in the experiment with Trichopyton rubrum (setting [5]), “fungicidal”; with Trichopyton rubrum (setting [6]), “fungicidal”; in the experiment on Epidermophyton floccosum (setting [4]), “fungistatic”; in the experiment on Epidermophyton floccosum (setting [5]), “fungicidal”; in the experiment with Epidermophyton floccosum (setting [6]), “fungicidal”. Moreover, the “Growth on poison media (fungistatic / fungicidal / growth)” value in experiment [2] (setting [4]) is given as “fungistatic”; in experiment [2] (setting [5]) it was “fungicidal”; in experiment [2] (setting [6]) it was “fungicidal”; in the experiment on Microsporum gypseum (setting [4]) it was “fungistatic”; in the experiment with Microsporum gypseum (setting [5]), “fungicidal”; in the experiment on Microsporum gypseum (setting [6]) it was “fungicidal”.
In the case of `CC(C)=CCCC(C)=CC=O` [Citral], in experiment [1], the “Rank among essential oil components” value is “most inhibitory”. Moreover, the “Growth on poison media (fungistatic / fungicidal / growth)” value was “[empty]” in the experiment with Trichopyton rubrum (setting [4]); “[empty]” in the experiment with Trichopyton rubrum (setting [5]); “fungicidal” in the experiment on Trichopyton rubrum (setting [6]); “[empty]” with Epidermophyton floccosum (setting [4]); “[empty]” in the experiment with Epidermophyton floccosum (setting [5]); “[empty]” with Epidermophyton floccosum (setting [6]). Further, the “Growth on poison media (fungistatic / fungicidal / growth)” value in experiment [2] (setting [4]) was “[empty]”; in experiment [2] (setting [5]), “[empty]”; in experiment [2] (setting [6]), “fungistatic”; in the experiment with Microsporum gypseum (setting [4]), “[empty]”; in the experiment with Microsporum gypseum (setting [5]) it was “[empty]”; in the experiment on Microsporum gypseum (setting [6]), “fungicidal”.
With `Cc1ccc(C(C)C)cc1O` [Carvacrol], the “Inhibition of growth” value in experiment [3] is “inhibit the growth of several organisms”. Further, the “Rank among essential oil components” value in experiment [1] is recorded as “most inhibitory”. Also, the “Growth on poison media (fungistatic / fungicidal / growth)” value with Trichopyton rubrum (setting [4]) was “fungistatic”; in the experiment with Trichopyton rubrum (setting [5]), “fungicidal”; in the experiment on Trichopyton rubrum (setting [6]), “fungicidal”; with Epidermophyton floccosum (setting [4]), “[empty]”; in the experiment with Epidermophyton floccosum (setting [5]), “fungicidal”; with Epidermophyton floccosum (setting [6]) it was “fungicidal”. Moreover, the “Growth on poison media (fungistatic / fungicidal / growth)” value was “[empty]” in experiment [2] (setting [4]); “fungicidal” in experiment [2] (setting [5]); “fungicidal” in experiment [2] (setting [6]); “fungistatic” with Microsporum gypseum (setting [4]); “fungicidal” in the experiment on Microsporum gypseum (setting [5]); “fungicidal” in the experiment with Microsporum gypseum (setting [6]).
